According to patent US6960592B2, “1,6-dihydro-7H-pyrazolo[4,3-d]pyrimidin-7-one compound for the treatment of impotence” (priority 2001, dated 2005):

Tests used:
[1] = tested on: mice with testis removed; experiment: Effect on the sexual function in mice with testis removed; format: in vivo
From the text: Test 2. Effect of the compound of formula (I′) on the sexual function in mice with testis removed

[2] = Toxicity test, LD50 by Bliss method, oral gavage; details: mouse, in vivo, mice, orally by gavage, confidence limit of 95% 772.5-1052.1 mg/kg, read-out: half-lethal dosage (LD50)
Procedure: The confidence limit of 95% is 772.5-1052.1 mg/kg.

[3] = tested on: rats with testis removed; experiment: Penis erection test in rats with testis removed; format: in vivo
From the text: Test 1. Penis erection test of the compound formula (I′) in rats with testis removed

[4] = tested on: male mice; details: orally, single dose, from Chinese Journal of Clinical Pharmacology and Therapeutics 1999, 4(3), 237-240; cited from earlier work

## CCCc1nn(C)c2c(=O)[nH]c(-c3cc(S(=O)(=O)N4C[C@@H](C)N[C@@H](C)C4)ccc3OCC)nc12 [compound of formula (I′), 5-[[2-ethoxy-5-(cis-2,6-dimethylpiperazin-4-ylsulphonyl)phenyl]]-1-methyl-3-n-propyl-7,6-dihydro-1H-pyrazolo[4,3-d]pyrimidin-7-one]
[1]; dosage 12 mg/kg, P<0.01
  latent period which male mice catch female mice: significantly shortened
  times of back-climbing on female mice by male mice (times of sexual intercourse): significantly increased
[1]; dosage 24 mg/kg, P<0.05
  latent period which male mice catch female mice: significantly shortened
  times of back-climbing on female mice by male mice (times of sexual intercourse): significantly increased
[2]
  LD50: 902 mg/kg
[3]; dosage 12 mg/kg, P<0.01
  latent period of penis erection by electric irritation (10V): significantly shortened
[3]; dosage 24 mg/kg, P<0.05
  latent period of penis erection by electric irritation (10V): significantly shortened

## CCCc1nn(C)c2c(=O)[nH]c(-c3cc(S(=O)(=O)N4CCN(C)CC4)ccc3OCC)nc12 [sildenafil, 1-[4-ethoxy-3-(6,7-dihydro-1-methyl-7-oxo-3-propyl-1H-pyrazolo[4,3-d]pyrimidin-5-yl)phenylsulphonyl]-4-methylpiperazine, reference compound]
[3]; sildenafil comparator, dose not given, P<0.01
  latent period of penis erection by electric irritation (10V): significantly shortened
[4]
  LD50: 625 mg/kg
